Key:
Experiment in all cases: Test B pre-/postemergence plant response
Assay type in all cases: in vivo
[1] = system: large crabgrass (Digitaria sanguinalis)
Description: (§1) Seeds of plant species selected from blackgrass (Alopecurus myosuroides), downy bromegrass (Bromus tectorum), green foxtail (Setaria viridis), Italian ryegrass (Lolium multiflorum), wheat (Triticum aestivum), wild oat (Avena fatua), deadnettle (henbit deadnettle, Lamium amplexicaule), galium (catchweed bedstraw, Galium aparine), bermudagrass (Cynodon dactylon), Surinam grass (Brachiaria decumbens), cocklebur (Xanthium strumarium), corn (Zea mays), large crabgrass (Digitaria sanguinalis), woolly cupgrass (Eriochloa villosa), giant foxtail (Setaria faberii), goosegrass (Eleusine indica), johnsongrass (Sorghum halepense), kochia (Kochia scoparia), lambsquarters (Chenopodium album), morningglory (Ipomoea coccinea), nightshade (eastern black nightshade, Solanum ptycanthum), yellow nutsedge (Cyperus esculentus), pigweed (Amaranthus retroflexus), ragweed (common ragweed, Ambrosia elatior), Russian thistle (Salsola kali), soybean (Glycine max), sunflower (common oilseed sunflower, Helianthus annuus) and velvetleaf (Abutilon theophrasti) were planted into a blend of loam soil and sand and treated preemergence with test compounds formulated in a non-phytotoxic solvent mixture which included a surfactant.
(§2) At the same time, plants selected from these crop and weed species and also winter barley (Hordeum vulgare), canarygrass (Phalaris minor), chickweed (Stellaria media) and windgrass (Apera spica-venti) were planted in pots containing Redi-Earth® planting medium (Scotts Company, 14111 Scottslawn Road, Marysville, Ohio 43041) comprising spaghnum peat moss, vermiculite, wetting agent and starter nutrients and treated with postemergence applications of some of the test chemicals formulated in the same manner. Plants ranged in height from 2 to 18 cm (1- to 4-leaf stage) for postemergence treatments.
(§3) Treated plants and controls were maintained in a greenhouse for 13 to 15 days, after which time all treated plants were visually evaluated and compared to controls. Plant response ratings, summarized in Table B, are based on a scale of 0 to 100 where 0 is no effect and 100 is complete control. A dash (-) response means no test result.

[2] = system: woolly cupgrass (Eriochloa villosa)
Description: as §1, §2, §3

[3] = system: morningglory (Ipomoea coccinea)
Description: as §1, §2, §3

[4] = system: velvetleaf (Abutilon theophrasti)
Description: as §1, §2, §3

[5] = system: bermudagrass (Cynodon dactylon)
Description: as §1, §2, §3

kochia (Kochia scoparia) = system: kochia (Kochia scoparia)
Description: as §1, §2, §3

[6] = system: cocklebur (Xanthium strumarium)
Description: as §1, §2, §3

[7] = system: downy bromegrass (Bromus tectorum)
Description: as §1, §2, §3

[8] = system: yellow nutsedge (Cyperus esculentus)
Description: as §1, §2, §3

[9] = system: Italian ryegrass (Lolium multiflorum)
Description: as §1, §2, §3

[10] = system: wheat (Triticum aestivum)
Description: as §1, §2, §3

soybean (Glycine max) = system: soybean (Glycine max)
Description: as §1, §2, §3

[11] = Postemergence, 31 g ai/ha, scale 0 to 100 (0 no effect, 100 complete control)
[12] = Postemergence, 62 g ai/ha, scale 0 (no effect) to 100 (complete control), 13 to 15 days
[13] = Postemergence, 125 g ai/ha, visual rating after 13 to 15 days, scale 0 (no effect) to 100 (complete control)
[14] = Postemergence, 250 g ai/ha, scale 0 to 100
[15] = Postemergence, 125 g ai/ha, scale 0 to 100 (0 no effect, 100 complete control), 13 to 15 days
[16] = 250 g ai/ha, Preemergence, 0 to 100 scale
[17] = Preemergence, 31 g ai/ha, scale 0 to 100 (0 no effect, 100 complete control)
[18] = Preemergence, 62 g ai/ha, scale 0 to 100 (0 no effect, 100 complete control)
[19] = Preemergence, 125 g ai/ha, 0 to 100 scale

## Cc1ccc(-n2c(-c3ccccc3)ncc(C(=O)C3=C(O)CCCC3=O)c2=O)cc1 [Compound 8]
[1]; [11]
  Plant response rating, Crabgrass, Large: 70
[1]; [12]
  Plant response rating, Crabgrass, Large: 85
[1]; [13]
  Plant response rating, Crabgrass, Large: 90
[1]; [14]
  Crabgrass, Large plant response rating: 100
[2]; [11]
  Plant response rating, Cupgrass, Woolly: 75
[2]; [12]
  Plant response rating, Cupgrass, Woolly: 80
[2]; [13]
  Plant response rating, Cupgrass, Woolly: 90
[2]; [14]
  Cupgrass, Woolly plant response rating: 100
[3]; [11]
  Plant response rating, Morningglory: 75
[3]; [12]
  Plant response rating, Morningglory: 90
[3]; [13]
  Plant response rating, Morningglory: 100
[3]; [14]
  Morningglory plant response rating: 100
[4]; [11]
  Plant response rating, Velvetleaf: 75
[4]; [12]
  Plant response rating, Velvetleaf: 80
[4]; [13]
  Plant response rating, Velvetleaf: 95
[4]; [14]
  Velvetleaf plant response rating: 100
[5]; [11]
  Plant response rating, Bermudagrass: 60
[5]; [12]
  Plant response rating, Bermudagrass: 85
[5]; [15]
  Plant response rating, Bermudagrass: 95
[5]; [14]
  Bermudagrass plant response rating: 100
Kochia (Kochia scoparia); [11]
  Plant response rating, Kochia: 85
Kochia (Kochia scoparia); [12]
  Plant response rating, Kochia: 100
Kochia (Kochia scoparia); [13]
  Plant response rating, Kochia: 100
Kochia (Kochia scoparia); [14]
  Kochia plant response rating: 100
[6]; [11]
  Plant response rating, Cocklebur: 100
[6]; [12]
  Plant response rating, Cocklebur: 100
[6]; [13]
  Plant response rating, Cocklebur: 100
[6]; [14]
  Cocklebur plant response rating: 100
[7]; [11]
  Plant response rating, Bromegrass, Downy: 5
[7]; [12]
  Plant response rating, Bromegrass, Downy: 5
[7]; [13]
  Plant response rating, Bromegrass, Downy: 10
[7]; [14]
  Bromegrass, Downy plant response rating: 10
[8]; [11]
  Plant response rating, Nutsedge, Yellow: 65
[8]; [12]
  Plant response rating, Nutsedge, Yellow: 70
[8]; [13]
  Plant response rating, Nutsedge, Yellow: 80
[8]; [14]
  Nutsedge, Yellow plant response rating: 85
[9]; [11]
  Plant response rating, Ryegrass, Italian: 20
[9]; [12]
  Plant response rating, Ryegrass, Italian: 20
[9]; [13]
  Plant response rating, Ryegrass, Italian: 30
[9]; [14]
  Ryegrass, Italian plant response rating: 50
[10]; [11]
  Plant response rating, Wheat: 25
[10]; [12]
  Plant response rating, Wheat: 30
[10]; [13]
  Plant response rating, Wheat: 35
[10]; [14]
  Wheat plant response rating: 35
Soybean (Glycine max); [11]
  Plant response rating, Soybean: 98
Soybean (Glycine max); [12]
  Plant response rating, Soybean: 98
Soybean (Glycine max); [13]
  Plant response rating, Soybean: 98
Soybean (Glycine max); [14]
  Soybean plant response rating: 100

## Cc1ccccc1-n1c(-c2ccccc2)ncc(C(=O)C2=C(O)CCCC2=O)c1=O [Compound 12]
[1]; [16]
  Plant response rating, Crabgrass, Large: 100
[1]; [11]
  Plant response rating, Crabgrass, Large: 65
[1]; [12]
  Plant response rating, Crabgrass, Large: 75
[1]; [13]
  Plant response rating, Crabgrass, Large: 80
[1]; [14]
  Crabgrass, Large plant response rating: 90
[1]; [17]
  Plant response rating, Crabgrass, Large: 0
[1]; [18]
  Plant response rating, Crabgrass, Large: 90
[1]; [19]
  Crabgrass, Large plant response rating: 100
[2]; [16]
  Plant response rating, Cupgrass, Woolly: 85
[2]; [11]
  Plant response rating, Cupgrass, Woolly: 55
[2]; [12]
  Plant response rating, Cupgrass, Woolly: 60
[2]; [13]
  Plant response rating, Cupgrass, Woolly: 70
[2]; [14]
  Cupgrass, Woolly plant response rating: 80
[2]; [17]
  Plant response rating, Cupgrass, Woolly: 0
[2]; [18]
  Plant response rating, Cupgrass, Woolly: 10
[2]; [19]
  Cupgrass, Woolly plant response rating: 75
[3]; [16]
  Plant response rating, Morningglory: 100
[3]; [11]
  Plant response rating, Morningglory: 15
[3]; [12]
  Plant response rating, Morningglory: 60
[3]; [13]
  Plant response rating, Morningglory: 70
[3]; [14]
  Morningglory plant response rating: 95
[3]; [17]
  Plant response rating, Morningglory: 40
[3]; [18]
  Plant response rating, Morningglory: 55
[3]; [19]
  Morningglory plant response rating: 85
[4]; [16]
  Plant response rating, Velvetleaf: 100
[4]; [11]
  Plant response rating, Velvetleaf: 80
[4]; [12]
  Plant response rating, Velvetleaf: 85
[4]; [13]
  Plant response rating, Velvetleaf: 98
[4]; [14]
  Velvetleaf plant response rating: 100
[4]; [17]
  Plant response rating, Velvetleaf: 90
[4]; [18]
  Plant response rating, Velvetleaf: 100
[4]; [19]
  Velvetleaf plant response rating: 100
[5]; [16]
  Plant response rating, Bermudagrass: 100
[5]; [11]
  Plant response rating, Bermudagrass: 65
[5]; [12]
  Plant response rating, Bermudagrass: 85
[5]; [15]
  Plant response rating, Bermudagrass: 98
[5]; [14]
  Bermudagrass plant response rating: 100
[5]; [17]
  Plant response rating, Bermudagrass: 100
[5]; [18]
  Plant response rating, Bermudagrass: 100
[5]; [19]
  Bermudagrass plant response rating: 100
Kochia (Kochia scoparia); [16]
  Plant response rating, Kochia: 100
Kochia (Kochia scoparia); [11]
  Plant response rating, Kochia: 20
Kochia (Kochia scoparia); [12]
  Plant response rating, Kochia: 20
Kochia (Kochia scoparia); [13]
  Plant response rating, Kochia: 60
Kochia (Kochia scoparia); [14]
  Kochia plant response rating: 65
Kochia (Kochia scoparia); [17]
  Plant response rating, Kochia: 15
Kochia (Kochia scoparia); [18]
  Plant response rating, Kochia: 100
Kochia (Kochia scoparia); [19]
  Kochia plant response rating: 100
[6]; [16]
  Plant response rating, Cocklebur: 100
[6]; [11]
  Plant response rating, Cocklebur: 70
[6]; [12]
  Plant response rating, Cocklebur: 98
[6]; [13]
  Plant response rating, Cocklebur: 100
[6]; [14]
  Cocklebur plant response rating: 100
[6]; [17]
  Plant response rating, Cocklebur: 25
[6]; [18]
  Plant response rating, Cocklebur: 80
[6]; [19]
  Cocklebur plant response rating: 98
[7]; [16]
  Plant response rating, Bromegrass, Downy: 0
[7]; [11]
  Plant response rating, Bromegrass, Downy: 5
[7]; [12]
  Plant response rating, Bromegrass, Downy: 10
[7]; [13]
  Plant response rating, Bromegrass, Downy: 20
[7]; [14]
  Bromegrass, Downy plant response rating: 20
[7]; [17]
  Plant response rating, Bromegrass, Downy: 0
[7]; [18]
  Plant response rating, Bromegrass, Downy: 0
[7]; [19]
  Bromegrass, Downy plant response rating: 0
[8]; [16]
  Plant response rating, Nutsedge, Yellow: 90
[8]; [11]
  Plant response rating, Nutsedge, Yellow: 15
[8]; [12]
  Plant response rating, Nutsedge, Yellow: 55
[8]; [13]
  Plant response rating, Nutsedge, Yellow: 65
[8]; [14]
  Nutsedge, Yellow plant response rating: 80
[8]; [17]
  Plant response rating, Nutsedge, Yellow: 25
[8]; [18]
  Plant response rating, Nutsedge, Yellow: 60
[8]; [19]
  Nutsedge, Yellow plant response rating: 75
[9]; [16]
  Plant response rating, Ryegrass, Italian: 0
[9]; [11]
  Plant response rating, Ryegrass, Italian: 0
[9]; [12]
  Plant response rating, Ryegrass, Italian: 0
[9]; [13]
  Plant response rating, Ryegrass, Italian: 5
[9]; [14]
  Ryegrass, Italian plant response rating: 5
[9]; [17]
  Plant response rating, Ryegrass, Italian: 0
[9]; [18]
  Plant response rating, Ryegrass, Italian: 0
[9]; [19]
  Ryegrass, Italian plant response rating: 0
[10]; [16]
  Plant response rating, Wheat: 0
[10]; [11]
  Plant response rating, Wheat: 0
[10]; [12]
  Plant response rating, Wheat: 0
[10]; [13]
  Plant response rating, Wheat: 0
[10]; [14]
  Wheat plant response rating: 0
[10]; [17]
  Plant response rating, Wheat: 0
[10]; [18]
  Plant response rating, Wheat: 0
[10]; [19]
  Wheat plant response rating: 0
Soybean (Glycine max); [16]
  Plant response rating, Soybean: 95
Soybean (Glycine max); [11]
  Plant response rating, Soybean: 98
Soybean (Glycine max); [12]
  Plant response rating, Soybean: 100
Soybean (Glycine max); [13]
  Plant response rating, Soybean: 100
Soybean (Glycine max); [14]
  Soybean plant response rating: 100
Soybean (Glycine max); [17]
  Plant response rating, Soybean: 60
Soybean (Glycine max); [18]
  Plant response rating, Soybean: 65
Soybean (Glycine max); [19]
  Soybean plant response rating: 80

Reference: US8952024B2, “Herbicidal pyrimidone derivatives” (E I du Pont de Nemours and Company, priority 2009, dated 2015)
